{
  "source": "paper PMC3302934",
  "about": "(Journal of Acquired Immune Deficiency Syndromes (1999), 2012)",
  "key": {"interleukin-6 (IL6)": {"test_system": "interleukin-6 (IL6)", "test": "Plasma IL6 by ELISA", "format": "in vivo, human", "conditions": "baseline median 8.22pg/ml"}, "[1]": {"test_system": "KSHV latency associated nuclear antigen (LANA)", "test": "IHC of KS biopsies for KSHV LANA", "format": "in vivo, human", "conditions": "KS biopsies on treatment vs baseline"}, "Kaposi sarcoma [2]": {"test_system": "Kaposi sarcoma", "conditions": "HIV-uninfected renal allograft recipients; trough 6-10ng/ml; cited from earlier work"}, "phospho-RPS6 (pRPS6)": {"test_system": "phospho-RPS6 (pRPS6)", "test": "IHC of KS biopsies for phospho-RPS6", "format": "in vivo, human"}, "[3]": {"test": "Rapamycin trough blood concentrations", "format": "in vivo, human"}, "[4]": {"test": "Safety and adverse event monitoring"}, "[5]": {"test_system": "phospho-Akt (Ser473) and phospho-Akt (T308)", "test": "IHC of KS biopsies for phospho-Akt", "format": "in vivo, human", "conditions": "KS biopsies on treatment vs baseline"}, "Kaposi sarcoma [6]": {"test_system": "Kaposi sarcoma", "test": "Clinical response of KS to rapamycin", "format": "in vivo, human"}, "CD4 T-lymphocyte counts": {"test_system": "CD4 T-lymphocyte counts", "test": "CD4+ T-lymphocyte count monitoring", "format": "in vivo, human", "conditions": "6 study participants with follow-up tests; median baseline 826"}, "HIV [7]": {"test_system": "HIV", "test": "HIV viral load monitoring", "format": "in vivo, human", "conditions": "during rapamycin treatment with ART"}, "[8]": {"test_system": "vascular endothelial growth factor (VEGF)", "test": "Plasma VEGF by ELISA", "format": "in vivo, human"}, "HIV [9]": {"test_system": "HIV", "conditions": "in culture; cited from earlier work"}, "KSHV": {"test_system": "KSHV", "test": "KSHV plasma viral load by quantitative real-time PCR", "format": "in vivo, human"}, "[10]": {"test_system": "cytochrome P450 3A4 (CYP3A4)", "conditions": "cited from earlier work"}, "P-glycoprotein": {"test_system": "P-glycoprotein", "conditions": "cited from earlier work"}, "Ki-67": {"test_system": "Ki-67", "test": "IHC of KS biopsies for Ki-67", "format": "in vivo, human", "conditions": "KS biopsies on treatment vs baseline"}},
  "data": [
    {"smiles": "CO[C@H]1C[C@@H]2CC[C@@H](C)[C@@](O)(O2)C(=O)C(=O)N2CCCC[C@H]2C(=O)O[C@H]([C@H](C)C[C@@H]2CC[C@@H](O)[C@H](OC)C2)CC(=O)[C@H](C)/C=C(\\C)[C@@H](O)[C@@H](OC)C(=O)[C@H](C)C[C@H](C)/C=C/C=C/C=C/1C", "note": "[rapamycin]", "values": [
      {"measurement": "changes in plasma IL6 concentrations during treatment", "setting": "interleukin-6 (IL6)", "result": "No significant changes"},
      {"measurement": "changes in LANA staining", "setting": "[1]", "result": "no significant changes"},
      {"measurement": "KS outcome after change from cyclosporin A-based regimen to rapamycin", "setting": "Kaposi sarcoma [2]", "result": "KS regressed"},
      {"measurement": "overall changes from baseline in staining scores (pRPS6, phospho-Akt)", "setting": "phospho-RPS6 (pRPS6); on-treatment KS biopsies, all patients, score 0 to 4", "result": "no significant changes"},
      {"measurement": "pRPS6 reactivity within KS tumor cells and overlying epithelium", "setting": "phospho-RPS6 (pRPS6); subject #5, after 50 days on drug vs baseline", "result": "decreased pRPS6 reactivity"},
      {"measurement": "pRPS6 staining compared to baseline", "setting": "phospho-RPS6 (pRPS6); three of four subjects biopsied at day 50 or later, all on PI/r-based ART", "result": "decreased pRPS6 staining"},
      {"measurement": "time for blood levels to decline to acceptable levels after stopping rapamycin", "setting": "[3]; first patient, ritonavir-boosted lopinavir regimen, from 172ng/mL", "result": "three"},
      {"measurement": "concentration at 7 days", "setting": "[3]; human, whole blood, oral, 2 mg", "result": 123, "unit": "ng/mL"},
      {"measurement": "concentration at 14 days", "setting": "[3]; human, whole blood, oral, 2 mg", "result": 172, "unit": "ng/mL"},
      {"measurement": "Maximum Rapamycin Trough Level by LCMSMS", "setting": "[3]; patient 001, Lopinavir/r ART, initial 2 mg daily", "result": 172, "unit": "ng/mL"},
      {"measurement": "Maximum Rapamycin Trough Level by LCMSMS", "setting": "[3]; patient 002, Atazanavir/r ART, initial 0.3 mg biw", "result": 64.4, "unit": "ng/mL"},
      {"measurement": "Maximum Rapamycin Trough Level by LCMSMS", "setting": "[3]; patient 003, Atazanavir/r ART, initial 0.3 mg biw", "result": 16.8, "unit": "ng/mL"},
      {"measurement": "Maximum Rapamycin Trough Level by LCMSMS", "setting": "[3]; patient 004, Nevirapine ART, initial 4.9 mg daily", "result": 13.1, "unit": "ng/mL"},
      {"measurement": "Maximum Rapamycin Trough Level by LCMSMS", "setting": "[3]; patient 005, Lopinavir/r ART, initial 0.4 mg biw", "result": 19.2, "unit": "ng/mL"},
      {"measurement": "Maximum Rapamycin Trough Level by LCMSMS", "setting": "[3]; patient 006, Efavirenz ART, initial 4.5 mg daily", "result": 7.4, "unit": "ng/mL"},
      {"measurement": "Maximum Rapamycin Trough Level by LCMSMS", "setting": "[3]; patient 007, Efavirenz ART, initial 3.7 mg daily", "result": 11.9, "unit": "ng/mL"},
      {"measurement": "grade of most adverse events", "setting": "[4]; all seven patients experienced adverse events", "result": "most were grade 1"},
      {"measurement": "serious adverse event", "setting": "[4]; patient #4, Nevirapine ART", "result": "extensive grade 3 superficial vein thrombus requiring anticoagulation, considered possibly related to rapamycin"},
      {"measurement": "infectious adverse events", "setting": "[4]; patient #5, pneumonia and dermatomal Herpes zoster", "result": "2 separate grade 2 infectious episodes without neutropenia"},
      {"measurement": "infectious adverse events", "setting": "[4]; patient #6, without neutropenia, resolved without treatment", "result": "grade 2 upper respiratory infection"},
      {"measurement": "overall tolerability", "setting": "[4]; seven HIV-infected KS patients on ART, trough target 5-10 ng/mL", "result": "generally well tolerated"},
      {"measurement": "changes in Akt phosphorylation at T308 or Ser473", "setting": "[5]", "result": "no significant changes"},
      {"measurement": "number of patients with stable disease as best response", "setting": "Kaposi sarcoma [6]; of seven", "result": "Three"},
      {"measurement": "number of patients with partial KS response", "setting": "Kaposi sarcoma [6]; of seven, all receiving PI/r regimens", "result": "Three"},
      {"measurement": "Best Response of KS to Rapamycin", "setting": "Kaposi sarcoma [6]; patient 001, Lopinavir/r ART, maintenance 0.2 mg biw", "result": "Partial"},
      {"measurement": "Best Response of KS to Rapamycin", "setting": "Kaposi sarcoma [6]; patient 002, Atazanavir/r ART, maintenance 0.2 mg biw", "result": "Partial"},
      {"measurement": "Best Response of KS to Rapamycin", "setting": "Kaposi sarcoma [6]; patient 003, Atazanavir/r ART, maintenance 0.3 mg tiw", "result": "Stable"},
      {"measurement": "Best Response of KS to Rapamycin", "setting": "Kaposi sarcoma [6]; patient 004, Nevirapine ART, maintenance 2.8 mg daily", "result": "Progression"},
      {"measurement": "Best Response of KS to Rapamycin", "setting": "Kaposi sarcoma [6]; patient 005, Lopinavir/r ART, maintenance 0.1 mg biw", "result": "Partial"},
      {"measurement": "Best Response of KS to Rapamycin", "setting": "Kaposi sarcoma [6]; patient 006, Efavirenz ART, maintenance 6.7 mg daily", "result": "Stable"},
      {"measurement": "Best Response of KS to Rapamycin", "setting": "Kaposi sarcoma [6]; patient 007, Efavirenz ART, maintenance 2.3 mg daily", "result": "Stable"},
      {"measurement": "response duration", "setting": "Kaposi sarcoma [6]; three responding patients", "result": "43 to 50", "unit": "weeks"},
      {"measurement": "time to partial KS response", "setting": "Kaposi sarcoma [6]; three responding patients", "result": "3 to 9", "unit": "weeks"},
      {"measurement": "CD4 counts during treatment", "setting": "CD4 T-lymphocyte counts", "result": "> 400", "unit": "cells/μL"},
      {"measurement": "changes in HIV VL", "setting": "HIV [7]", "result": "no consistent changes"},
      {"measurement": "changes in plasma VEGF concentrations during treatment", "setting": "[8]", "result": "No significant changes"},
      {"measurement": "effect on HIV infectivity and transcription", "setting": "HIV [9]", "result": "inhibits HIV infectivity and transcription in culture"},
      {"measurement": "changes in KSHV VL during rapamycin treatment", "setting": "KSHV", "result": "no significant changes"},
      {"measurement": "median change in KSHV VL during treatment", "setting": "KSHV; baseline median 214, P=0.156", "result": -138.8, "unit": "copies/ml"},
      {"measurement": "substrate status for CYP3A4", "setting": "[10]", "result": "substrate"},
      {"measurement": "substrate status for P-glycoprotein", "setting": "P-glycoprotein", "result": "substrate"},
      {"measurement": "changes in Ki-67 staining", "setting": "Ki-67", "result": "no significant changes"}
    ]}
  ]
}
